# According to PubChem BioAssay (NCI):
#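 In this assay, cells in 96-well plates receive the compound at five concentrations for 48 hours. Endpoints are linearly interpolated between the surrounding concentrations. TGI: concentration producing complete growth inhibition.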
# Key:
# Assay in all cases: NCI tumour cell line growth inhibition, 48 h
# MDA-MB-231 breast = tested on: MDA-MB-231 breast
# K-562 leukemia = tested on: K-562 leukemia
# HL-60(TB) leukemia = tested on: HL-60(TB) leukemia
# SNB-19 CNS = tested on: SNB-19 CNS
# LOX IMVI melanoma = tested on: LOX IMVI melanoma
# HCC-2998 colon = tested on: HCC-2998 colon
# MOLT-4 leukemia = tested on: MOLT-4 leukemia
# UO-31 renal = tested on: UO-31 renal
# M14 melanoma = tested on: M14 melanoma
# T-47D breast = tested on: T-47D breast
# UACC-62 melanoma = tested on: UACC-62 melanoma
# 786-0 renal = tested on: 786-0 renal
# CCRF-CEM leukemia = tested on: CCRF-CEM leukemia
# MDA-MB-435 = tested on: MDA-MB-435
# A549 NSCLC = tested on: A549 NSCLC
# A498 renal = tested on: A498 renal
# BT-549 breast = tested on: BT-549 breast
# MCF7 breast = tested on: MCF7 breast
# MDA-N = tested on: MDA-N
# OVCAR-8 ovarian = tested on: OVCAR-8 ovarian
# HOP-92 NSCLC = tested on: HOP-92 NSCLC
# NCI/ADR-RES ovarian = tested on: NCI/ADR-RES ovarian
# HCT-15 colon = tested on: HCT-15 colon
# SR leukemia = tested on: SR leukemia
# SK-MEL-2 melanoma = tested on: SK-MEL-2 melanoma
# NCI-H460 lung = tested on: NCI-H460 lung
# UACC-257 melanoma = tested on: UACC-257 melanoma
# OVCAR-4 ovarian = tested on: OVCAR-4 ovarian
# SK-MEL-5 melanoma = tested on: SK-MEL-5 melanoma
# U251 CNS = tested on: U251 CNS
# SN12C renal = tested on: SN12C renal
# SK-MEL-28 melanoma = tested on: SK-MEL-28 melanoma
# NCI-H522 lung = tested on: NCI-H522 lung
# ACHN renal = tested on: ACHN renal
# HT29 colon = tested on: HT29 colon
# NCI-H23 lung = tested on: NCI-H23 lung
# TK-10 renal = tested on: TK-10 renal
# HCT-116 colon = tested on: HCT-116 colon
# EKVX NSCLC = tested on: EKVX NSCLC
# OVCAR-3 ovarian = tested on: OVCAR-3 ovarian
# IGROV1 ovarian = tested on: IGROV1 ovarian
# HS 578T breast = tested on: HS 578T breast
# SF-268 CNS = tested on: SF-268 CNS
# NCI-H226 lung = tested on: NCI-H226 lung
# SK-OV-3 ovarian = tested on: SK-OV-3 ovarian
# COLO 205 colon = tested on: COLO 205 colon
# KM12 colon = tested on: KM12 colon
# PC-3 prostate = tested on: PC-3 prostate
# SW-620 colon = tested on: SW-620 colon
# SF-539 CNS = tested on: SF-539 CNS
# CAKI-1 renal = tested on: CAKI-1 renal
# RPMI-8226 leukemia = tested on: RPMI-8226 leukemia
# DU-145 prostate = tested on: DU-145 prostate
# HOP-62 NSCLC = tested on: HOP-62 NSCLC
# SNB-75 CNS = tested on: SNB-75 CNS
# SF-295 CNS = tested on: SF-295 CNS
# MALME-3M melanoma = tested on: MALME-3M melanoma
# RXF 393 renal = tested on: RXF 393 renal
structure (smiles),measurement,setting,value
O=C(O)CO[C@@]12C#C/C=C\C#C[C@@H]3N(C(=O)Oc4ccccc4)c4ccccc4[C@]14O[C@@]34CCC2,TGI,MDA-MB-231 breast,26.6 µM
same,TGI,K-562 leukemia,92.9 µM
same,TGI,HL-60(TB) leukemia,> 100 µM
same,TGI,SNB-19 CNS,> 100 µM
same,TGI,LOX IMVI melanoma,> 100 µM
same,TGI,HCC-2998 colon,28.7 µM
same,TGI,MOLT-4 leukemia,> 100 µM
same,TGI,UO-31 renal,90 µM
same,TGI,M14 melanoma,> 100 µM
same,TGI,T-47D breast,33.1 µM
same,TGI,UACC-62 melanoma,26.5 µM
same,TGI,786-0 renal,> 100 µM
same,TGI,CCRF-CEM leukemia,> 100 µM
same,TGI,MDA-MB-435,6.29 µM
same,TGI,A549 NSCLC,> 100 µM
same,TGI,A498 renal,> 100 µM
same,TGI,BT-549 breast,69.9 µM
same,TGI,MCF7 breast,46.7 µM
same,TGI,MDA-N,34.5 µM
same,TGI,OVCAR-8 ovarian,> 100 µM
same,TGI,HOP-92 NSCLC,> 100 µM
same,TGI,NCI/ADR-RES ovarian,> 100 µM
same,TGI,HCT-15 colon,31.2 µM
same,TGI,SR leukemia,> 100 µM
same,TGI,SK-MEL-2 melanoma,32.2 µM
same,TGI,NCI-H460 lung,> 100 µM
same,TGI,UACC-257 melanoma,> 100 µM
same,TGI,OVCAR-4 ovarian,> 100 µM
same,TGI,SK-MEL-5 melanoma,> 100 µM
same,TGI,U251 CNS,54.8 µM
same,TGI,SN12C renal,> 100 µM
same,TGI,SK-MEL-28 melanoma,> 100 µM
same,TGI,NCI-H522 lung,85.9 µM
same,TGI,ACHN renal,> 100 µM
same,TGI,HT29 colon,> 100 µM
same,TGI,NCI-H23 lung,> 100 µM
same,TGI,TK-10 renal,> 100 µM
same,TGI,HCT-116 colon,> 100 µM
same,TGI,EKVX NSCLC,> 100 µM
same,TGI,OVCAR-3 ovarian,> 100 µM
same,TGI,IGROV1 ovarian,> 100 µM
same,TGI,HS 578T breast,69.4 µM
same,TGI,SF-268 CNS,85.2 µM
same,TGI,NCI-H226 lung,> 100 µM
same,TGI,SK-OV-3 ovarian,19.9 µM
same,TGI,COLO 205 colon,46.8 µM
same,TGI,KM12 colon,60.3 µM
same,TGI,PC-3 prostate,> 100 µM
same,TGI,SW-620 colon,> 100 µM
same,TGI,SF-539 CNS,> 100 µM
same,TGI,CAKI-1 renal,> 100 µM
same,TGI,RPMI-8226 leukemia,> 100 µM
same,TGI,DU-145 prostate,> 100 µM
same,TGI,HOP-62 NSCLC,> 100 µM
Nc1cc([N+](=O)[O-])ccc1C(=O)N1CCC[C@H]1CO,TGI,MDA-MB-231 breast,> 100 µM
same,TGI,K-562 leukemia,> 100 µM
same,TGI,SNB-75 CNS,> 100 µM
same,TGI,HL-60(TB) leukemia,> 100 µM
same,TGI,SNB-19 CNS,> 100 µM
same,TGI,LOX IMVI melanoma,> 100 µM
same,TGI,MOLT-4 leukemia,> 100 µM
same,TGI,UO-31 renal,> 100 µM
same,TGI,T-47D breast,> 100 µM
same,TGI,UACC-62 melanoma,> 100 µM
same,TGI,786-0 renal,> 100 µM
same,TGI,CCRF-CEM leukemia,> 100 µM
same,TGI,MDA-MB-435,> 100 µM
same,TGI,A549 NSCLC,> 100 µM
same,TGI,A498 renal,> 100 µM
same,TGI,BT-549 breast,> 100 µM
same,TGI,MCF7 breast,> 100 µM
same,TGI,MDA-N,> 100 µM
same,TGI,OVCAR-8 ovarian,> 100 µM
same,TGI,HOP-92 NSCLC,> 100 µM
same,TGI,NCI/ADR-RES ovarian,> 100 µM
same,TGI,HCT-15 colon,> 100 µM
same,TGI,SR leukemia,> 100 µM
same,TGI,SK-MEL-2 melanoma,> 100 µM
same,TGI,NCI-H460 lung,> 100 µM
same,TGI,UACC-257 melanoma,> 100 µM
same,TGI,SF-295 CNS,> 100 µM
same,TGI,OVCAR-4 ovarian,> 100 µM
same,TGI,U251 CNS,> 100 µM
same,TGI,SN12C renal,> 100 µM
same,TGI,SK-MEL-28 melanoma,> 100 µM
same,TGI,NCI-H522 lung,> 100 µM
same,TGI,ACHN renal,> 100 µM
same,TGI,MALME-3M melanoma,> 100 µM
same,TGI,HT29 colon,> 100 µM
same,TGI,NCI-H23 lung,> 100 µM
same,TGI,TK-10 renal,> 100 µM
same,TGI,HCT-116 colon,> 100 µM
same,TGI,EKVX NSCLC,> 100 µM
same,TGI,IGROV1 ovarian,> 100 µM
same,TGI,RXF 393 renal,> 100 µM
same,TGI,HS 578T breast,> 100 µM
same,TGI,SF-268 CNS,> 100 µM
same,TGI,NCI-H226 lung,> 100 µM
same,TGI,SK-OV-3 ovarian,> 100 µM
same,TGI,COLO 205 colon,> 100 µM
same,TGI,KM12 colon,> 100 µM
same,TGI,PC-3 prostate,> 100 µM
same,TGI,SW-620 colon,> 100 µM
same,TGI,SF-539 CNS,> 100 µM
same,TGI,CAKI-1 renal,> 100 µM
same,TGI,RPMI-8226 leukemia,> 100 µM
same,TGI,DU-145 prostate,> 100 µM
